Measurements published in ChEMBL document CHEMBL1201862, “PubChem BioAssay data set” (2004).
The source made the active and inactive calls.

Tests used:
[1] = HEp-2 cell cytotoxicity, dose response, cytotoxicity control for RSV inhibitor project, HTS (AID 2410); format: functional; settings: human respiratory syncytial virus
fMet-Leu-Phe receptor = target: T1, fMet-Leu-Phe receptor (Homo sapiens, UniProt P21462); test: FPR ligands, dose response (AID 519); format: functional
T1 sequence (P21462 whole entry): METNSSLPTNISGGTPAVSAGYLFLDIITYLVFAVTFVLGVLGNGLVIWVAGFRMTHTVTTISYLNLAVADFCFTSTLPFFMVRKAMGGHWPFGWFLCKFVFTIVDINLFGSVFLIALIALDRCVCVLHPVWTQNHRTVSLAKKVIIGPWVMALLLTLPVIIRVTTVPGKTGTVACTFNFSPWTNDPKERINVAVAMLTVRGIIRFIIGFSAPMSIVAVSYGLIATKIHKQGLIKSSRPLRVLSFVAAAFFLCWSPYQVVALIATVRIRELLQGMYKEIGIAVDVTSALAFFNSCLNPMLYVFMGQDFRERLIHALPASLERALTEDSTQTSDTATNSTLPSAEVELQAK

HeLa = test: HeLa cell cytotoxicity, dose response, cytotoxicity control for MITF activator project, CellTiter-Glo luminescence, cherry-pick samples (AID 540259); format: functional, cell-based; settings: Homo sapiens
[2] = inhibitors of Vif binding to APOBEC3G peptide, primary screen, biochemical, TR-FRET, GST-Vif 1-94, biotin-A3G peptide, dose response retest (AID 1117319); format: functional;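 further: TR-FRET signal of purified GST-Vif binding a biotinylated A3G peptide; inhibitors lower the FRET signal by blocking Vif and A3G binding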
[3] = target: Intestinal-type alkaline phosphatase (Mus musculus, UniProt P24822); test: PubChem AID 488785; format: functional
[4] = target: T2, Alkaline phosphatase, tissue-nonspecific isozyme (Homo sapiens, UniProt P05186); test: TNAP enzyme inhibition by screening hits, dose response, selectivity assay for mouse IAP inhibitor project, biochemical, human TNAP, uHTS hits (AID 488906); format: functional
T2 sequence (P05186 whole entry): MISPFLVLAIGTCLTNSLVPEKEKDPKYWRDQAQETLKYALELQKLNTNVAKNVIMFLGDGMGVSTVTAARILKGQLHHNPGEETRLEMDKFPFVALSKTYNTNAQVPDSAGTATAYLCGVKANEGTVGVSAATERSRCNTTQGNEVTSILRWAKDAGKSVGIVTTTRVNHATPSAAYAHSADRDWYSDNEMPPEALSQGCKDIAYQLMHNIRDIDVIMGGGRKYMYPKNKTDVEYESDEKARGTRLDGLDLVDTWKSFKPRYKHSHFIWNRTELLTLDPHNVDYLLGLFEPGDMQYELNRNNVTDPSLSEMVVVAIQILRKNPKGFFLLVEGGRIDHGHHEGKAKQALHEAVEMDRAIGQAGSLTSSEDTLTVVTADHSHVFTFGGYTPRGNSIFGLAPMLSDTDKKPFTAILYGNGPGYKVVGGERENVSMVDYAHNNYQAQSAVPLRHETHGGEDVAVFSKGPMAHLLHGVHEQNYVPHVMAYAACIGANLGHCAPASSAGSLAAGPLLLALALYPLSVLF

[5] = target: Intestinal-type alkaline phosphatase (Homo sapiens, UniProt P09923); test: inhibition of human intestinal alkaline phosphatase – biochemical, dose response (AID 488876); format: functional
HEK293 [6] = test: NOD1 signaling inhibitors, primary screen, cell-based, luminescence, uHTS (AID 1578); format: functional; settings: Homo sapiens
BJ [7] = test: cytotoxicity toward BJ-TERT fibroblasts, dose response, cell-based, RAS-independent, luminescence (AID 1933); format: functional; settings: Homo sapiens
HEK293 [8] = test: cells; format: functional, cell-based; settings: Homo sapiens
BJ [9] = test: cells; format: functional, cell-based; settings: Homo sapiens
HEK293 [10] = test: cells; format: functional, cell-based; settings: Homo sapiens; remark: listed apart in the source
HEK293 [11] = test: NOD2 signaling inhibitors in MDP-stimulated cells, cell-based, uHTS, luminescence (AID 2001); format: functional; settings: Homo sapiens
BJ [12] = test: cytotoxicity toward BJ-TERT-LT-ST fibroblasts, dose response, cell-based, RAS-independent, luminescence (AID 1935); format: functional; settings: Homo sapiens;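 further: BJ fibroblasts immortalized with TERT plus LT and ST oncogenes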
[13] = cytotoxicity toward DRD oncogenic fibroblasts, dose response, cell-based, non-viral oncogenic, luminescence (AID 1934); format: functional; settings: Homo sapiens
[14] = target: T3, Replicative DNA helicase DnaB (Mycobacterium tuberculosis, UniProt P9WMR3); test: DnaB intein splicing inhibitors, dose response, biochemical, cell-free fluorescence (AID 449749); format: functional
T3 sequence (P9WMR3 whole entry): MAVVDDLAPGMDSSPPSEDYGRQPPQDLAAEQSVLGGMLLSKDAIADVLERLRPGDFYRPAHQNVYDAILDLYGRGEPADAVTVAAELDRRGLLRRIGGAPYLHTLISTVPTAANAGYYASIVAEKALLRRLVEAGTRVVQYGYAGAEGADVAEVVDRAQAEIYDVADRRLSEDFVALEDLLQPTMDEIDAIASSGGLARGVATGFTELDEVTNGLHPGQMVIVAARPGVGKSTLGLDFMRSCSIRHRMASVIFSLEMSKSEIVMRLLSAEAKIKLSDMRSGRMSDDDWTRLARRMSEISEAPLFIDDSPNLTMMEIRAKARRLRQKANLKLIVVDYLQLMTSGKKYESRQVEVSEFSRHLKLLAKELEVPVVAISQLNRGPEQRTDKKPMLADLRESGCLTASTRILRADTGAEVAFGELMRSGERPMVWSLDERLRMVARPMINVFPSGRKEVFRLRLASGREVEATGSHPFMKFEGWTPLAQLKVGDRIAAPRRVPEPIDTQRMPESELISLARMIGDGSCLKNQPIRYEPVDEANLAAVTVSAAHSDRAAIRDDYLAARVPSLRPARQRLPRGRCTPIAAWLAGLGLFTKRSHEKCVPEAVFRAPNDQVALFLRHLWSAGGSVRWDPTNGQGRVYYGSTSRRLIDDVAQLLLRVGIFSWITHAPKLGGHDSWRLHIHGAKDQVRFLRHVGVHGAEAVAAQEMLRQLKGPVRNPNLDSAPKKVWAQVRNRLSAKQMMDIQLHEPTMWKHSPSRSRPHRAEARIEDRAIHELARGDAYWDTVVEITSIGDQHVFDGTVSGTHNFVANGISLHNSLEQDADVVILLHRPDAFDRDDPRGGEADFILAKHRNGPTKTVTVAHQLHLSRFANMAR

Protein RecA = target: T4, Protein RecA (Mycobacterium tuberculosis, UniProt P9WHJ3); test: Fluorescence Cell-Free Homogeneous Dose Retest to Identify Inhibitors of RecA-Intein Splicing Activity. [Related pubchem assays (depositor defined):AID2097, AID2223, AID489010, AID492950]; format: functional
T4 sequence (P9WHJ3 whole entry): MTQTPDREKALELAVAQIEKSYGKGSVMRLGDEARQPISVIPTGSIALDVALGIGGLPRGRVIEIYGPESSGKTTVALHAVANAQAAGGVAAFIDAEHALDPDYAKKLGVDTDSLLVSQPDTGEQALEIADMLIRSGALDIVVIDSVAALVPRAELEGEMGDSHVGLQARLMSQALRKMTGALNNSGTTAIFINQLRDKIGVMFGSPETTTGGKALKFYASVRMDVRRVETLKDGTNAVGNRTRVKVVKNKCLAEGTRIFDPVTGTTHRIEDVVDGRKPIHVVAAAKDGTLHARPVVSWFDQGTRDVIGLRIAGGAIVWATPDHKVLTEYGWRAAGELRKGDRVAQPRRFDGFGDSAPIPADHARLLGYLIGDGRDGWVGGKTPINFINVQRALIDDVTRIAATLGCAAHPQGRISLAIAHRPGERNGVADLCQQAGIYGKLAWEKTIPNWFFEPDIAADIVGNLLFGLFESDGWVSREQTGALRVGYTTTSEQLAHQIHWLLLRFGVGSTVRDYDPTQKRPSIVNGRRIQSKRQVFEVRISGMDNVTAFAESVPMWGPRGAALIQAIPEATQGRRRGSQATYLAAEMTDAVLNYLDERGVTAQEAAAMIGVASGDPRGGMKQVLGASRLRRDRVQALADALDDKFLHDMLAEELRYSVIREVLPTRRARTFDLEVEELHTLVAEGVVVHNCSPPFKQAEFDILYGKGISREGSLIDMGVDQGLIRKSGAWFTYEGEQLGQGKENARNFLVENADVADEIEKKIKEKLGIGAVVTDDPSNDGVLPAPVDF

Large T antigen = Large T antigen (Simian virus 40, UniProt P03070); format: functional, Betapolyomavirus macacae;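 further: Confirmatory-stage PubChem screen for compounds that inhibit SV40 T antigen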
[15] = target: Luciferin 4-monooxygenase (Photinus pyralis, UniProt P08659); test: firefly luciferase enzyme inhibitors, dose response, biochemical, luminescence (AID 1891)
[16] = Luminescence Cell-Based Dose Confirmation HTS to Identify Inhibitors of Platelet Dense Granule Release. [Related pubchem assays: 1663 (Primary HTS), 1678 (Summary of Project)]; format: functional
[17] = target: T5, Rac GTPase-activating protein 1 (Homo sapiens, UniProt Q9H0H5); test: MgcRacGAP GTPase-activating activity inhibitors, confirmation, biochemical, ADP Hunter fluorescence, primary and confirmatory (AID 624330); format: functional
T5 sequence (Q9H0H5 whole entry): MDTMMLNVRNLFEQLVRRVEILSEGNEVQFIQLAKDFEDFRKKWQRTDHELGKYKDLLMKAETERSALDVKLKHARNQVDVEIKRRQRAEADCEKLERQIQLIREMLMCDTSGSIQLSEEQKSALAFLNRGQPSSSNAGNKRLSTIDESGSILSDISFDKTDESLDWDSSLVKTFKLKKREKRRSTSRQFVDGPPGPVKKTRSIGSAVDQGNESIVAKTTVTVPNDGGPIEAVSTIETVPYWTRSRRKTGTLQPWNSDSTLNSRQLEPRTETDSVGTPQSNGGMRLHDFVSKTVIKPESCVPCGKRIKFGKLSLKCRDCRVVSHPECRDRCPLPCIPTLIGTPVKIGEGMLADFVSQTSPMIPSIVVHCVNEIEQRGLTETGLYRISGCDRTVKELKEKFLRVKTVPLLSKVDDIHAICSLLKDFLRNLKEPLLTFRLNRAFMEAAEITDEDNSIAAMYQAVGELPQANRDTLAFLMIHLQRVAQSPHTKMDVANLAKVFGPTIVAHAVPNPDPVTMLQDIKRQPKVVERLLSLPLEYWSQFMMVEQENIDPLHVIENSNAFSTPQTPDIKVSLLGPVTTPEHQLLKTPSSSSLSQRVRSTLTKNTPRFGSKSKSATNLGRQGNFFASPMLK

[18] = P. falciparum 3D7-ScDHODH growth inhibitors, dose response, SYBR Green, dry powder samples (AID 1159570); format: functional, cell-based;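 further: parasite growth measured after 72 hours of compound exposure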
[19] = P. falciparum Dd2 growth inhibitors, dose response, SYBR Green, cherry-picked samples (AID 1159567); format: functional, cell-based
[20] = P. falciparum Dd2 growth inhibitors, dose response, SYBR Green, dry powder samples (AID 1159566); format: functional, cell-based;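 further: potency for growth inhibition with lower SYBR green DNA signal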
[21] = P. falciparum ATP4 D1247Y mutant growth inhibitors, dose response, NITD609-resistant line, SYBR Green, dry powder (AID 1159571); format: functional, cell-based;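 further: parasites synchronized at ring stage by sorbitol before testing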

Intestinal-type alkaline phosphatase (Mus musculus, UniProt P24822), sequence (P24822 whole entry): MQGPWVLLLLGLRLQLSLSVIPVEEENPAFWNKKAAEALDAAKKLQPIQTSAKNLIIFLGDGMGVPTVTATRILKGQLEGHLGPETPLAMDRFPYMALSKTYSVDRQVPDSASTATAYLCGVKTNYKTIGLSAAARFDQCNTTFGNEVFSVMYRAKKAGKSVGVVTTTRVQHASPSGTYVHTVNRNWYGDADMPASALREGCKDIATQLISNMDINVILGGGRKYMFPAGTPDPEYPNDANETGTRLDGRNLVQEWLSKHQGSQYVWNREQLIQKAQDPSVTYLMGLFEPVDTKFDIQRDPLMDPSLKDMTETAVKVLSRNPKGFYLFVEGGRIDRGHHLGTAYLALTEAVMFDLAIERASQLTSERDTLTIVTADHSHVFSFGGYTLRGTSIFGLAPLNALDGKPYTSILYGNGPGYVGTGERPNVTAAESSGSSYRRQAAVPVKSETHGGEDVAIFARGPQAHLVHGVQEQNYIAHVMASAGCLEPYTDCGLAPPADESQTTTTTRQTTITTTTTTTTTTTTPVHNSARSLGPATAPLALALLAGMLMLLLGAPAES
Intestinal-type alkaline phosphatase (Homo sapiens, UniProt P09923), sequence (P09923 whole entry): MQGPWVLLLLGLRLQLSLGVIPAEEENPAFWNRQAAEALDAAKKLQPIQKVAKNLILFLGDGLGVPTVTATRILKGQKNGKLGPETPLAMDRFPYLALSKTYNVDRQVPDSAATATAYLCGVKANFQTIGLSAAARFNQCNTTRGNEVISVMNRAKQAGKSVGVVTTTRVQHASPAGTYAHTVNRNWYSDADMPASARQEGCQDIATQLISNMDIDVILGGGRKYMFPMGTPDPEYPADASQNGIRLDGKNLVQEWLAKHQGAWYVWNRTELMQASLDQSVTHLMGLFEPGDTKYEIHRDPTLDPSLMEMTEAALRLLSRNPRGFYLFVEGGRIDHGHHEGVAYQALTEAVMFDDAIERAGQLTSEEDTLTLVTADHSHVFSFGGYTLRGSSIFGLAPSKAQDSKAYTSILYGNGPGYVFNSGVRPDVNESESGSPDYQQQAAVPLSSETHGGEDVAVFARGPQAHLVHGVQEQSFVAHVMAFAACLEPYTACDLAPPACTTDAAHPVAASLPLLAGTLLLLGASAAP
Luciferin 4-monooxygenase, sequence (P08659 whole entry): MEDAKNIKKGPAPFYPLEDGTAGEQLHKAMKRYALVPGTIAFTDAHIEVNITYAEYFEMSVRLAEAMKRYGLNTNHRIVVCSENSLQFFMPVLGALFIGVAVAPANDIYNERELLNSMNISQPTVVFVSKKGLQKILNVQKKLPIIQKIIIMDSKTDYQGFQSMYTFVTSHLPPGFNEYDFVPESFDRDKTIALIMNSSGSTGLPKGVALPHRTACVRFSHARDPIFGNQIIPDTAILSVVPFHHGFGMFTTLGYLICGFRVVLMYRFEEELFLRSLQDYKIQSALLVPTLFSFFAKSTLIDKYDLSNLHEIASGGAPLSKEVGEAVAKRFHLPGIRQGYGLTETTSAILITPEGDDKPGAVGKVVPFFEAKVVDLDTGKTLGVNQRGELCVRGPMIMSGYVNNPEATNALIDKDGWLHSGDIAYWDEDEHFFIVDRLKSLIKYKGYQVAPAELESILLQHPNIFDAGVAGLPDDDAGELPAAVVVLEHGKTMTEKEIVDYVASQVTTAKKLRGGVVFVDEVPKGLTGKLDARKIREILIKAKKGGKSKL
Large T antigen, sequence (P03070 whole entry): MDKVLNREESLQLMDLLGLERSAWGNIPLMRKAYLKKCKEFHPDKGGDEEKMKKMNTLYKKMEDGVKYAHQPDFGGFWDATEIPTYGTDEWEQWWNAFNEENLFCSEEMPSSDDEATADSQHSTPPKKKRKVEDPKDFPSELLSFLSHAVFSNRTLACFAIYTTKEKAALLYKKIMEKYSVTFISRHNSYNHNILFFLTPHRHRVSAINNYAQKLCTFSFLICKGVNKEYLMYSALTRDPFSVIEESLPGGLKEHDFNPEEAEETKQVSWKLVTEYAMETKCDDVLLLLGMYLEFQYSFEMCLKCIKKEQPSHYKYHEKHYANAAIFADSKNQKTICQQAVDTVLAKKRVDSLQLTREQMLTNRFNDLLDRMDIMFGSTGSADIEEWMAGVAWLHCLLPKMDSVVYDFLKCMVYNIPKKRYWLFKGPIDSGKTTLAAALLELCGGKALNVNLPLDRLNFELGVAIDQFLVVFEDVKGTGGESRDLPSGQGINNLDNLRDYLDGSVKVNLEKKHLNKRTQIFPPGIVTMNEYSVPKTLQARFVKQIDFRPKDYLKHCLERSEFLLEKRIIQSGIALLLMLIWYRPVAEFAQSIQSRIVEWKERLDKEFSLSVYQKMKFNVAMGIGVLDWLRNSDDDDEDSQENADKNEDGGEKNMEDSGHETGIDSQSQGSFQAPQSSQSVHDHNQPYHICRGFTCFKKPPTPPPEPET

COc1ccc(-c2ccc3c(N)c(C(=O)NC(C)C)sc3n2)cc1OC
CC50 [1]: > 50 µM (active) | IC50 (cells): 35.9 µM (active)

Cc1ccc(C(=O)C2=C(O)C(=O)N(c3cc(C)on3)C2c2cccc(Br)c2)cc1 (stereo not drawn)
Ki (fMet-Leu-Phe receptor): > 66.7 µM (inactive)

O=S(=O)(c1ccc2c(c1)OCCO2)N1CCC(c2nc(O)c3nnn(Cc4c(F)cccc4Cl)c3n2)CC1
CC50 [1]: 34.2 µM (active) | IC50 (cells): 9.34 µM (active)

O=c1oc(-c2cccs2)nc2sc3c(c12)CCCCC3
AC50 (HeLa): 47.1 µM (active)

COc1ccccc1-c1cc2nc(C)cc(C)n2n1
CC50 [1]: 22.5 µM (active) | IC50 (cells): 18.8 µM (active)

C/C(=C\C(=O)c1ccc(Br)cc1)N1CCCCC1
IC50 [2]: > 100 µM (active)

Cc1ccc(OC(=O)c2cccc(S(=O)(=O)N3CCCC3)c2)c(-n2nc3ccccc3n2)c1
AC50 (HeLa): 260 µM (active)

C=CCn1cc(CN2CCC(C(=O)Nc3cccc(-c4cccc(Cl)c4)c3)CC2)c(C)n1
IC50 [3]: 10.3 µM (active) | IC50 [4]: 5.84 µM (active) | IC50 [5]: 14.3 µM (active)

CCc1nc(N2CCN(C(=O)CCl)CC2)c2c3c(sc2n1)CC(C)CC3 (stereo not drawn)
EC50 (HEK293 [6]): > 20 µM (inactive) | EC50 (BJ [7]): 1.62 µM (active) | IC50 (HEK293 [8]): 8.57 µM (active) | EC50 (BJ [9]): 9.44 µM (inconclusive) | IC50 (HEK293 [10]): > 20 µM (inactive) | IC50 (HEK293 [11]): 12 µM (inactive) | EC50 (BJ [12]): 5.72 µM (inconclusive) | EC50 [13]: 5.84 µM (active) | AC50 [14]: 1.92 µM (active) | EC50 (Protein RecA): 0.729 µM (active)

CC1Cc2cc(C(=O)C3=C(O)C(=O)N(CCN4CCOCC4)C3c3ccccc3F)ccc2O1 (stereo not drawn)
Ki (fMet-Leu-Phe receptor): > 66.7 µM (inactive)

Cc1ccc(-n2nnnc2SCn2nnc3ccccc3c2=O)cc1
IC50 [2]: > 100 µM (active)

CCN(CC(=O)Nc1c(F)cccc1F)C(=O)CSC(=S)N1CCCC1
IC50 [2]: > 100 µM (active)

CCOC(=O)CSc1nnc(CNC(=O)c2cc(OCC)c(OCC)c(OCC)c2)n1C
Ki (fMet-Leu-Phe receptor): > 66.7 µM (inactive)

Cc1nonc1C(=O)N/N=C/c1ccc(O)c(O)c1
IC50 (Large T antigen): 3.81 µM (active) | EC50 [15]: 4.26 µM (active) | EC50 [16]: 0.868 µM (active) | IC50 [3]: 9.92 µM (active) | IC50 [4]: 16.8 µM (active) | IC50 [5]: 14 µM (active) | IC50 [17]: 18.6 µM (active)

COC(=O)N/N=C/c1ccc(-c2cccc(Cl)c2)o1
CC50 [1]: 28.3 µM (active) | IC50 (cells): 24.9 µM (active)

COc1ccc(C#Cc2ccc3c(c2)O[C@H](CN(C)S(=O)(=O)c2ccccc2F)[C@@H](C)CN([C@H](C)CO)S3(=O)=O)cc1
AC50 [18]: 1.38 µM (active) | AC50 [19]: 1.7 µM (active) | AC50 [20]: 1.12 µM (active) | AC50 [21]: 1.21 µM (active)

O=C1c2cccc(O)c2C(=O)c2c(O)cc(CO)cc21 [ALOE-EMODIN]
IC50 [3]: 2.88 µM (active) | IC50 [4]: > 100 µM (inactive) | IC50 [5]: > 100 µM (inactive)
